Patent US7722863B2, “Use of granzyme b as an hsp70/hsp70 peptide dependent inducer of apoptosis in tumor cells” (Multimmune GmbH, priority 2002, dated 2010)

Assays:
[1] = tested on: Hsp70 membrane-negative CX− cells; assay: Annexin V-FITC apoptosis assay (flow cytometry); format: cell-based, human; conditions: for apoptosis in CX− cells: camptothecin 4 μg/ml or granzyme B 6 ng/ml; for amount of Annexin V-FITC positively stained CX− cells / fold increase of Annexin V-FITC positively stained CX− cells: camptothecin 4 μg/ml; for fold increase of Annexin V-FITC positively stained CX− cells: versus untreated
Experimental: (§1) Exponentially growing tumor cells (day 1 after cell passage) were used for granzyme B, camptothecin treatment and as targets in cytotoxicity assays.
(§2) Stock solutions of camptothecin (4 mg/ml, Sigma, Munich, Germany) were diluted in DMSO and stored at 4° C. in the dark. Granzyme B (6 ng/ml, Hölzel Diagnostics, Cologne, Germany) solutions were freshly prepared directly before usage. Exponentially growing cells (0.5-1.5×10^6/ml) were incubated either with camptothecin at a final concentration of 4 μg/ml or with purified, enzymatically active granzyme B (10 ng/ml, 1 μg/ml, 2 μg/ml; 4 μg/ml) (Shi et. al. (2000) Methods in Enzymology 322, 125) for 10 min, and 30 min either at 4° C. or at 37° C. After washing in RPMI-1640 medium binding and uptake was determined in nonpermeabilized and permeabilized tumor cells by flow cytometry and fluorescence microscopy on a Axioscop 25 scanning microscope (Zeiss, Jena, Germany) equipped with a 40× objective and standard filters. Images were treated by multiplicative shading correction using the software Axiovison (Zeiss Vison, Jena, Germany). Granzyme B was visualized in red by using the HC2-PE antibody.
(§3) Apoptotic Cell Death was Determined after Incubation of Tumor Cells with 6 ng/ml Granzyme B for 4 h, 12 h, and 24 h at 37° C. and Washing in RPMI-1640 Medium by Different Apoptosis Assays, as Described Below. Apoptosis Assays
(§4) Annexin V-FITC staining: Briefly, cells were washed twice in Hepes buffer containing 5 mM CaCl2 and incubated with Annexin V-FITC (Roche) for 10 min at room temperature. Annexin V-FITC positively stained cells were measured on a FACSCalibur flow cytometer (Becton Dickinson, Heidelberg, Germany).
(§5) The preceding findings posed the question whether purified granzyme B can induce apoptosis of tumor cells that present Hsp70 on their cell surface. […] As a positive control for apoptosis all cell types were incubated with the topoisomerase inhibitor camptothecin at a concentration of 4 μg/ml. Apoptosis was determined by Annexin V-FITC staining measured by FACS (FACSCalibur, Becton Dickinson, Heidelberg, Germany), DAPI staining and mitochondrial cytochrome c release. Apoptosis was not detected in CX+ and CX− cells incubated with camptothecin (cam) or granzyme B (grB) for 4 h incubation (FIG. 3A). […] It appeared that the colon carcinoma sublines CX+/CX− are better protected towards a camptothecin-mediated cell death as compared to the pancreas carcinoma sublines Colo+/Colo−.

[2] = tested on: Hsp70 membrane-negative Colo− cells; assay: Annexin V-FITC apoptosis assay (flow cytometry); format: cell-based, human; conditions: 12 h and 24 h; camptothecin 4 μg/ml or granzyme B 6 ng/ml
Experimental: as §1, §2, §3, §4, §5

[3] = tested on: Hsp70 membrane-positive CX+ cells; assay: Annexin V-FITC apoptosis assay (flow cytometry); format: cell-based, human; conditions: camptothecin 4 μg/ml or granzyme B 6 ng/ml; for fold increase of Annexin V-FITC positively stained CX+ cells: versus untreated
Experimental: as §1, §2, §3, §4, §5

[4] = tested on: Hsp70 membrane-positive Colo+ cells; assay: Annexin V-FITC apoptosis assay (flow cytometry); format: cell-based, human; conditions: 12 h and 24 h; camptothecin 4 μg/ml
Experimental: as §1, §2, §3, §4, §5

CX+ tumor cells [5] = assay: Cytochrome c release, quantitative immunoassay; format: cell-based, human; conditions: camptothecin 4 μg/ml or granzyme B 6 ng/ml, 24 h
Experimental: (§6) Cytochrome c release: Cytochrome c release was determined using a quantitative immunoassay; (DCDCO, R&D Systems, Wiesbaden, Germany). Briefly, either untreated, camptothecin (4 μg/ml) or granzyme B (6 ng/ml) treated CX+ and CX− cells (1.5×10^6/ml) were washed in PBS and treated with lysis buffer for 1 h at room temperature. Following centrifugation at 1,000 g for 15 min supernatants were removed and 200 μl of a 1:100, 1:250, and a 1:500 dilution was used for a sandwich ELISA. Following incubation with substrate solution in the dark for 30 min the reaction was stopped. The optical density of each well was determined on an ELISA reader at 450 nm. The amount of cytochrome c was determined according to a calibration curve.
(§7) As an additional test for apoptotic cell death, cytochrome c release was measured following incubation of CX+ and CX− cells with granzyme B for 24 h. As summarized in Table I, following incubation with granzyme B (6 ng/ml) for 24 h, cytochrome c concentration was elevated from 0.382 mg/ml to 0.690 mg/ml (1.8-fold) in CX+ cells. […] It was propose that the trigger of apoptosis by granzyme B is mediated via the extracellular exposed Hsp70 epitope TKD.

CX− tumor cells [6] = assay: Cytochrome c release, quantitative immunoassay; format: cell-based, human; conditions: camptothecin 4 μg/ml or granzyme B 6 ng/ml, 24 h
Experimental: as §6, §7

CX+ tumor cells [7] = assay: DAPI staining of nuclear DNA fragmentation; format: cell-based, human; conditions: 24 h, camptothecin 4 μg/ml or granzyme B 6 ng/ml
Experimental: (§8) DAPI-staining: Methanol/aceton fixed cells (0.1×10^6 cells/100 μl) were incubated with 0.5 μg/μl 4,6-diamino-2-phenylindole (DAPI) in PBS/glycerol (3:1), for 15 min in the dark. Following washing in PBS the cells were mounted with Fluorescent Mounting Medium (Dako, Glostrup, Denmark) and than analysed for fluorescence using a Zeiss model Axioscop 2 scanning microscope (Zeiss Jena, Germany) equipped with a 40× objective and standard filters. Apoptosis was visualized with DAPI-staining in 50 cells, each. Images were treated by multiplicative shading correction using software Axiovision (Zeiss Vision Jena, Germany).

CX− tumor cells [8] = assay: DAPI staining of nuclear DNA fragmentation; format: cell-based, human; conditions: 24 h, camptothecin 4 μg/ml or granzyme B 6 ng/ml
Experimental: as §8

Colo+ tumor cells = assay: DAPI staining of nuclear DNA fragmentation; format: cell-based, human; conditions: 24 h, camptothecin 4 μg/ml or granzyme B 6 ng/ml
Experimental: as §8

Colo− tumor cells = assay: DAPI staining of nuclear DNA fragmentation; format: cell-based, human; conditions: 24 h, camptothecin 4 μg/ml or granzyme B 6 ng/ml
Experimental: as §8

[9] = tested on: Hsp70 membrane-positive tumor target cells; conditions: Hsp70-protein 10 to 50 μg/ml; cited from earlier work

Molecule: CC[C@@]1(O)C(=O)OCc2c1cc1n(c2=O)Cc2cc3ccccc3nc2-1 [camptothecin, reference compound]
- apoptosis in CX− cells ([1]; 4 h incubation): not detected
- amount of Annexin V-FITC positively stained CX− cells ([1]; 12 h, untreated 12.1%): 19.8%
- fold increase of Annexin V-FITC positively stained CX− cells ([1]; 12 h): 1.6 fold
- apoptosis in CX− cells ([1]; 12 h and 24 h): underwent apoptosis
- amount of Annexin V-FITC positively stained CX− cells ([1]; 24 h, untreated 11.9%): 25.1%
- fold increase of Annexin V-FITC positively stained CX− cells ([1]; 24 h): 2.1 fold
- apoptosis in Colo− cells [2]: underwent apoptosis
- apoptosis in CX+ cells ([3]; 4 h incubation): not detected
- amount of Annexin V-FITC positively stained CX+ cells ([3]; 12 h, untreated 16.6%): 28.0%
- fold increase of Annexin V-FITC positively stained CX+ cells ([3]; 12 h): 1.7 fold
- apoptosis in CX+ cells ([3]; 12 h and 24 h): underwent apoptosis
- amount of Annexin V-FITC positively stained CX+ cells ([3]; 24 h, untreated 18%): 39%
- fold increase of Annexin V-FITC positively stained CX+ cells ([3]; 24 h): 2.1 fold
- apoptosis in Colo+ cells [4]: underwent apoptosis
- cytochrome c fold increase (CX+ tumor cells [5]; control 1.0): 1.5 fold
- cytochrome c (CX+ tumor cells [5]; mean of 4 experiments ± S.E., control 0.382 ± 0.02): 0.555 ± 0.04 mg/mL
- cytochrome c fold increase (CX− tumor cells [6]; control 1.0): 1.5 fold
- cytochrome c (CX− tumor cells [6]; mean of 4 experiments ± S.E., control 0.452 ± 0.02): 0.672 ± 0.02 mg/mL
- nuclear DNA fragmentation (DAPI) (CX+ tumor cells [7]): exhibited nuclear fragmentation
- nuclear DNA fragmentation (DAPI) (CX− tumor cells [8]): exhibited nuclear fragmentation
- nuclear DNA fragmentation (DAPI) (Colo+ tumor cells): exhibited nuclear fragmentation
- nuclear DNA fragmentation (DAPI) (Colo− tumor cells): exhibited nuclear fragmentation

Molecule: Hsp70-protein: recombinant human Hsp70-protein (Stressgen)
- cytolytic activity of NK cells against Hsp70 membrane-positive tumor target cells [9]: increased cytolytic activity
